US20080038809A1, “ISOLATED LECTIN POLYPEPTIDES CONSISTING OF TRUNCATED […] UDP-GalNAc:POLYPEPTIDE N- ACETYLGALACTOSAMINYLTRANSFERASES” (GLYCOZYM APS, priority 2002, published 2008)

How the values were obtained:
β3Gal-T4 = β3Gal-T4 (Homo sapiens, UniProt O96024); details: cited from earlier work
[1] = target: T1, human GalNAc-T2 (UDP-GalNAc:polypeptide N-acetylgalactosaminyltransferase T2) isolated truncated lectin domain (T2ld), HIS-tagged, amino acid residues 408-571 o (Homo sapiens, UniProt Q10471); assay type: binding
T1 sequence (Q10471 408-571): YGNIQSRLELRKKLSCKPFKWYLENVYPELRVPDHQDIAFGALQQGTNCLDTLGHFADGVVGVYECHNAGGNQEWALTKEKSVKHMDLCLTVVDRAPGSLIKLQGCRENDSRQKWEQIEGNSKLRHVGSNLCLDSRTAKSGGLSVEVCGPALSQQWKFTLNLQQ
Text: (§1) In order to minimize the size and functional complexity of GalNAc-transferase lectins to be used as probes for binding studies, we used multiple sequence alignment analysis to predict and design suitable expression constructs for isolated lectin domains (FIG. 2). In the present invention a direct binding assay was developed using isolated lectin domains of GalNAc-T4 and -T2 with minimal size (FIG. 5). […] The lectin Helix Pomatia (HP) was used as a control plant lectin with known binding specificity for […].
(§2) Direct binding ELISA assay was developed as follows: Polystyrene microtiter plates (Maxisorb, Nunc, Denmark) were coated with peptides or enzymatically glycosylated glycopeptides in PBS overnight at 4° C. Plates were washed and blocked with 0.1% Tween20 and 0.2% BSA in PBS for 1 h at room temperature, followed by incubation with biotinylated proteins in PBS with 0.05% Tween20 for 2 h at room temperature. After four washes with PBS, plates were incubated with 1:2,000 dilution streptavidin-HRP (Sigma) in PBS for 30 min at room temperature and washed four times with PBS. Development was performed with 0.5 mg/ml o-phenylenediamine and 0.02% H2O2 at room temperature for 15 min, and reaction stopped by adding 100 μl/well of 0.5 N H2SO4. Competitive inhibition assays were done at end-point titers of GalNAc-transferase proteins with one hour preincubations with inhibitor.
(§3) In binding studies using lectins without biotinylation antibodies to the HIS-tag and the T7-tag, or in some experiments antibodies raised to GalNAc-T2 and -T4 enzymes were used to detect binding.
(§4) Inhibition experiments were used to further define the binding specificity of GalNAc-T2 and -T4 secreted soluble enzymes as well as lectin domains compared to Helix Pomatia lectin (Table IV).
(§5) The ligand target used in this Example is a GalNAc-MUC1 glycopeptide produced enzymatically from synthetic peptides.

HT-29 MTX cells = test: Viscosity of media from HT-29 MTX cells; assay type: cell-based, human; details: 5 mM; data not shown
Text: (§6) In order to evaluate GalNAcβ-benzyl as an inhibitor of mucin glycosylation and secretion we used the cultured colon carcinoma cells of mucin secreting phenotypes: HT-29 metotrexate (MTX) cells selected from the HT-29 cell line by culture in the presence of MTX (kind gift from G. Huet, France). The HT-29 MTX cells were selected to yield a goblet cell like phenotype with constitutive production of MUC5AC. In order to ensure proper goblet cell differentiation the HT29MTX cell line were continuously grown up to 21 days in the presence of 5 mM GalNAcα-benzyl, 5 mM GalNAcβ-benzyl, 5 mM GlcNAcα-benzyl and without inhibitor using culture conditions as described in Hennebicq-Reig et al. (Permanent exposure of mucin-secreting HT-29 cells to benzyl-N-acetyl-alpha-D-galactosaminide induces abnormal O-glycosylation of mucins and inhibits constitutive and stimulated MUC5AC secretion. Biochem J. 1998; 334:283-95). […] Furthermore the viscosity of the media from cells with and without inhibitor was evaluated using viscosity micro-measurement.

MUC5AC in HT29MTX cells = test: Immuno-fluorescence staining of MUC5AC with CLH2 (FIG. 18); assay type: cell-based, human; details: 5 mM, continuous culture
Text: FIG. 18 illustrates immuno-fluorescence staining of HT29MTX cells treated with inhibitors as indicated and stained with the anti-MUC5AC monoclonal antibody, CLH2.
as §6, with “334:283-95). At 7, 14 and 21 days of continuous culture, media was collected and cells were fixed in 3% paraformaldehyde and stained for the presence of MUC5AC and specific carbohydrate structures using immuno-histochemistry with the following monoclonal antibodies: CLH2 recognizing MUC5AC (Reis C. et al. Immunohistochemical study of MUC5AC expression in human gastric carcinomas using a novel monoclonal antibody. Int. J. Cancer. 1997; 74:112-21), 1E3 recognizing Tn (GalNAcα linked to serine or threonine), 3C9 recognizing T (Galβ1-3GalNAcα linked to serine or threonine, and 3F1 recognizing Sialyl-Tn (NeuAcα2-6GalNAcα linked to serine or threonine.” for “334:283-95).”

β3Gal-T5 = β3Gal-T5 (Homo sapiens, UniProt Q9Y2C3); details: cited from earlier work
[2] = target: human GalNAc-T4 (UDP-GalNAc:polypeptide N-acetylgalactosaminyltransferase T4) isolated truncated lectin domain (T4ld), HIS-tagged, amino acid residues 405-578 o (Homo sapiens, UniProt Q8N4A0); test: biochemical; assay type: binding; details: isolated lectin domain
Text: as §1, §2, §3, §4, §5

[3] = tested on: MUC1 in CHO1d1D/MUC1F-clone2 cells; test: MUC1 expression in cell lysates, immunoprecipitation and SDS-PAGE western blot (FIGS. 12-15); assay type: cell-based, Chinese Hamster; details: 2 mM, 48 hours, 5E5 blot
GalNAc-T2 lectin domain = target: T2, GalNAc-T2 lectin domain (Homo sapiens, UniProt Q10471); test: Inhibition of GalNAc-T2 lectin domain (T2ld) binding to GalNAc-MUC1 glycopeptide, ELISA
T2 construct: comprises amino acid residues 408-571 of GALNT2; made in house; host or cells: baculovirus (pAcGP67-A), virus made in Sf9, protein produced in High Five insect cells
T2 sequence (Q10471 408-571): T1 sequence (Q10471 408-571)
Description: as §2, §3, §4

[4] = target: T3, secreted soluble GalNAc-T2 (Homo sapiens, UniProt Q10471); test: Inhibition of secreted soluble GalNAc-T2 (sT2) binding to GalNAc-MUC1 glycopeptide, ELISA
T3 construct: 6xHis (N); thrombin cleavage site (N); T7 antibody site (N); made in house; host or cells: baculovirus (pAcGP67A), High Five insect cells
Description: as §2, §4

GalNAc-T7 = GalNAc-T7 (Homo sapiens, UniProt Q86SF2); details: mM concentrations; cited from earlier work
[5] = target: T4, secreted soluble GalNAc-T4 (Homo sapiens, UniProt Q8N4A0); test: Inhibition of secreted soluble GalNAc-T4 (sT4) binding to GalNAc-MUC1 glycopeptide, ELISA
T4 construct: 6xHis (N); thrombin cleavage site (N); T7 antibody site (N); made in house; host or cells: baculovirus (pAcGP67A), High Five insect cells
Description: as §2, §4

HT29 MTX cells = details: cited from earlier work

Chain of human GalNAc-T4 (UDP-GalNAc:polypeptide N-acetylgalactosaminyltransferase T4) isolated truncated lectin domain (T4ld), HIS-tagged, amino acid residues 405-578 o (Q8N4A0 405-578): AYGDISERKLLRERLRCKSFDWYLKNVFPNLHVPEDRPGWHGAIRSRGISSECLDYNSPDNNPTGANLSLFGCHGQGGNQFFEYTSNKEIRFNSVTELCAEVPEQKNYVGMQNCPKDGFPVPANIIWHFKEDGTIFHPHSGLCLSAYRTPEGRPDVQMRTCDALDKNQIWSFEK
Chain of β3Gal-T4 (O96024 whole entry, the tested form may be a part): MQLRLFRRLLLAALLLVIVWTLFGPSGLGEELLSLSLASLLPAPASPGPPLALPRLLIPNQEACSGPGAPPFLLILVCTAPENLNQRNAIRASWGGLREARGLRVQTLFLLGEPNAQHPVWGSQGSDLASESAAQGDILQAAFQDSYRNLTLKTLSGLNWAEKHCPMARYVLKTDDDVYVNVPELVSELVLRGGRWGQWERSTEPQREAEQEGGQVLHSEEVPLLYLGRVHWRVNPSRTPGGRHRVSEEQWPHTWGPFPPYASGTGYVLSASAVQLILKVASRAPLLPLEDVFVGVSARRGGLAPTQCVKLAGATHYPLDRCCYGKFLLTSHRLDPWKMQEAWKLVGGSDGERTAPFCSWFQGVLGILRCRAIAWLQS
T3 sequence (Q10471 52-571 limits assumed): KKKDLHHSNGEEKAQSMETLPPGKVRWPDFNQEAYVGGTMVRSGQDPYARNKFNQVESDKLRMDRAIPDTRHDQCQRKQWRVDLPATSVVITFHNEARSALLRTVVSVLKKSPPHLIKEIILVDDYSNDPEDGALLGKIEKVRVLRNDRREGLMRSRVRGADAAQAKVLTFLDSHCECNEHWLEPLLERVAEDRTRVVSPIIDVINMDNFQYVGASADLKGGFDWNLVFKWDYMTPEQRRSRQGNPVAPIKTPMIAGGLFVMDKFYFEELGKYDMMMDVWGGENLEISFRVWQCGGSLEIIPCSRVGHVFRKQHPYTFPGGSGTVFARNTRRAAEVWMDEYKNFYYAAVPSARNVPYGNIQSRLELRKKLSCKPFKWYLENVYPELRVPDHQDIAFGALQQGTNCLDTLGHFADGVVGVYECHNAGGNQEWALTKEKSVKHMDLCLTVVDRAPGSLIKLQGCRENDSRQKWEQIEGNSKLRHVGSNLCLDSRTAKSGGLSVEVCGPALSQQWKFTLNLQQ
Chain of β3Gal-T5 (Q9Y2C3 whole entry, species assumed, the tested form may be a part): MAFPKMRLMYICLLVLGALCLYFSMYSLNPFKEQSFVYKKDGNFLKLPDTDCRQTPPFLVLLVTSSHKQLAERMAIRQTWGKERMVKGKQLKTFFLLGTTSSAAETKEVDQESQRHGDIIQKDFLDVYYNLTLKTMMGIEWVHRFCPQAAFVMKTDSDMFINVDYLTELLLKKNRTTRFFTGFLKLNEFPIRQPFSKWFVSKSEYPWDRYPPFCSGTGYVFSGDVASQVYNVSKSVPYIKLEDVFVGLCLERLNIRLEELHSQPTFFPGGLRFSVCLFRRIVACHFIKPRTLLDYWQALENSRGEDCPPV
Chain of GalNAc-T7 (Q86SF2 whole entry): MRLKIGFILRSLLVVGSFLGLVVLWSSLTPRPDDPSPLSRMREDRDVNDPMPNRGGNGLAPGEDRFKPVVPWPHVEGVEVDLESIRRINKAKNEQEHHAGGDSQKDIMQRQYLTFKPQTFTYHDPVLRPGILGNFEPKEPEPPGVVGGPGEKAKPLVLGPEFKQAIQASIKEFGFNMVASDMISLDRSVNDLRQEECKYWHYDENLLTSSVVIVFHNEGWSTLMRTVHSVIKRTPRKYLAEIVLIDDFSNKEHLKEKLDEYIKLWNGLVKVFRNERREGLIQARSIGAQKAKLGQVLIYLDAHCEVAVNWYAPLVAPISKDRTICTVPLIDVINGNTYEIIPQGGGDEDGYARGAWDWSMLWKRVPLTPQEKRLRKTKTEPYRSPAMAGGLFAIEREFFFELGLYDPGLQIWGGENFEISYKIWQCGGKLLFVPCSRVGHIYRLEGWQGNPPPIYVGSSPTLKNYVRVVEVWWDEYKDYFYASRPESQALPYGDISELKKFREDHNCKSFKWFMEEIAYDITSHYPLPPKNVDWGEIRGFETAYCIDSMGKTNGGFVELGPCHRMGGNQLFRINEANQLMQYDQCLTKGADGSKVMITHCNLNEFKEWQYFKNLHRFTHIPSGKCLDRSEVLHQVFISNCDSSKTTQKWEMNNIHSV
T4 sequence (Q8N4A0 36-578 limits assumed): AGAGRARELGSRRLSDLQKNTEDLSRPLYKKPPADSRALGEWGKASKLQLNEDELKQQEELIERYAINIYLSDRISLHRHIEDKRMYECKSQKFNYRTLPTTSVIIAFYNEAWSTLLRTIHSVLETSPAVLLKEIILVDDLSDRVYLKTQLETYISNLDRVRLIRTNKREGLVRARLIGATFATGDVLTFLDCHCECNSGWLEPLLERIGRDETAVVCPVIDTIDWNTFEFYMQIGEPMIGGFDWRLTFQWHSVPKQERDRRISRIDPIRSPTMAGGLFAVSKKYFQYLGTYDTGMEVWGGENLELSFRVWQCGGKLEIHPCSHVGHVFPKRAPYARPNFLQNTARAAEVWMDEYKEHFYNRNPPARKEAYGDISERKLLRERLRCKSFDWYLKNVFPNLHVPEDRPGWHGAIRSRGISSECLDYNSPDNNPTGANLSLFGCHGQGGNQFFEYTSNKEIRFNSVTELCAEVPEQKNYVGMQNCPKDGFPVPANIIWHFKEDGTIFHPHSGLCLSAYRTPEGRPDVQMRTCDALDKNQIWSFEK

inhibition of GalNAc-T2 lectin domain binding (in words) [1]	storage phenotype (MUC5AC in HT29MTX cells)	inhibition of GalNAc-T4 lectin domain binding (in words) [2]	IC50 (GalNAc-T2 lectin domain)	IC50 [4]	IC50 [5]	SMILES	activity of β3Gal-T4 with the compound as acceptor (β3Gal-T4)	viscosity of media (HT-29 MTX cells)	intracellular staining of MUC5AC (MUC5AC in HT29MTX cells)	activity of β3Gal-T5 with the compound as acceptor (β3Gal-T5)	MUC1 expression [3]	inhibition of lectin mediated GalNAc-glycopeptide substrate specificity of GalNAc-T7 (GalNAc-T7)	inhibition of mucin secretion (HT29 MTX cells)
inhibited binding to the same degree	did not lead to any storage disease	inhibited binding to the same degree				CC(=O)N[C@H]1[C@H](OCc2ccccc2)O[C@H](CO)[C@H](O)[C@@H]1O [GalNAcβ-benzyl]	no or very poor activity	less viscous	clearly diminished intracellular staining	no or very poor activity			
	induced a storage phenotype		20 mM	15 mM	1 mM	CC(=O)N[C@H]1[C@@H](OCc2ccccc2)O[C@H](CO)[C@H](O)[C@@H]1O [BzlαGalNAc, benzyl-N-acetyl-alpha-D-galactosaminide]			increased intracellular staining		significant reduction	can inhibit	
inhibited binding to the same degree		inhibited binding to the same degree				CC(=O)N[C@H]1[C@@H](OCc2ccccc2)O[C@H](CO)[C@H](O)[C@@H]1O [GalNAcα-benzyl, benzyl-N-acetyl-alpha-D-galactosaminide]							Inhibition of mucin secretion
